Results as given in patent publication US20090078651A1, “Mung Water Treatment Method” (ReNew Systems, Inc., priority 2007, published 2009).

Tests used:
[1] = tested on: bacteria colonies from mung water; experiment: Most probable number plates of treated mung water samples (bacteria colony counts); format: cell-based; conditions: for colonies counted, Most Probable Number Plates: T = 24
Description: On 27 Sep. 2006 an experimental was conducted to compare the effects of treating mung water with DBNPA only to the effects of treating mung water with both DBNPA and Odor-Out®. The experiment was set-up in 250 ml baffled shake flasks with dispo plugs. The Odor Out® solutions used in this experiment were “aged”, having been prepared on 12 Sep. 2006 in tap water. The DBNPA solution was made up just prior to making additions to the flasks and was made using distilled water. After mung water samples and DBNPA and Odor Out® treatment additives were added, the flasks were placed in an incubation shaker set at 30 degrees C. and shaken at 100 rpm. The experiment was started at 2:30 p.m. on 27 Sep. 2006. The flasks were shaken for 2½ hours at which point the shaker was turned off and the flasks were allowed to incubate in a stationary position overnight. The next day, on 28 Sep. 2006 from 11 a.m.-2 p.m., serial dilutions were made up and most probable number plates were prepared. The plates were incubated overnight at 30 degrees C. On 29 Sep.

[2] = designed property; cited from earlier work

With `N#CC(Br)(Br)C(N)=O` [DBNPA, 2.2-dibromo-3-nitrilopropionamide] the “colonies counted, Most Probable Number Plates” value (shortened to “colonies counted”) ([1]; Straight, DBNPA 0.05% 10 μl in 50 ml mung water, no Odor Out (1a)) was “TNC (the colonies on the plates were too numerous to count (>300))”, the “colonies counted” value ([1]; dilution 10^−1, DBNPA 0.05% 10 μl in 50 ml mung water, no Odor Out (1a)) was “TNC (the colonies on the plates were too numerous to count (>300))” and the “colonies counted” value ([1]; dilution 10^−2, DBNPA only (1a)) was 5. For the same compound, the “colonies counted” value ([1]; dilution 10^−3, DBNPA only (1a)) was 1, the “colonies counted” value ([1]; dilution 10^−4, DBNPA only (1a)) was 0 and the “colonies counted” value ([1]; dilution 10^−5, DBNPA only (1a)) was 0. The “colonies counted” value ([1]; dilution 10^−6, DBNPA only (1a)) was 0, the “colonies counted” value ([1]; dilution 10^−7, DBNPA only (1a)) was 0 and the “bacteria colony counts, change” value ([1]; mung water samples treated only with DBNPA) was “moderate reductions”. For the same compound, the “time to biodegrade after introduction into a recirculating water system” value [2] was ≤ 48 h.
